Test results: patent US20180030500A1, “ENRICHMENT AND SELECTIVE CULTURE OF MYCOBACTERIA” (priority 2015, published 2018)
Where two headings read alike, the source gives them in different places.

Columns and labels:
Enterobacteria = conditions: 7 strains, 7 days
Gram-positive bacteria = conditions: 10 strains, 7 days
Mycobacteria = conditions: 20 strains, 7 days
[1] = test system: Burkholderia dolosa (LMG21820); assay: Sensitivity to C-390 in medium W; format: cell-based; set-up: key: NG: no growth; Tr: traces
Description: (§1) An evaluation of the sensitivity to C-390 of various microorganisms capable of infecting the airways was carried out. This evaluation was carried out using medium W of example 4, containing a variable concentration of C-390. Table 10 below collates the observations collected with regard to the intensity of growth of the strains tested as a function of the C-390 concentration of the medium. The abbreviations NG (“no growth”) and Tr (“traces”) signify that no growth was observed or only a few not very significant traces.

[2] = test system: Aspergillus fumigatus (Anon); assay: Sensitivity to C-390 in medium W; format: cell-based; set-up: key: NG: no growth; Tr: traces
Description: as §1

[3] = test system: Burkholderia contaminans (40007X); assay: Sensitivity to C-390 in medium W; format: cell-based; set-up: key: NG: no growth; Tr: traces
Description: as §1

[4] = test system: Burkholderia multivorans (LMG 18824); assay: Sensitivity to C-390 in medium W; format: cell-based; set-up: key: NG: no growth; Tr: traces
Description: as §1

[5] = test system: Burkholderia multivorans (645914C); assay: Sensitivity to C-390 in medium W; format: cell-based; set-up: key: NG: no growth; Tr: traces
Description: as §1

Fusarium oxysporum (ENV) = assay: Sensitivity to C-390 in medium W; format: cell-based; set-up: key: NG: no growth; Tr: traces
Description: as §1

[6] = test system: Aspergillus terreus (Anon); assay: Sensitivity to C-390 in medium W; format: cell-based; set-up: key: NG: no growth; Tr: traces
Description: as §1

[7] = test system: Burkholderia gladioli (ENV); assay: Sensitivity to C-390 in medium W; format: cell-based; set-up: key: NG: no growth; Tr: traces
Description: as §1

[8] = test system: Burkholderia anthina (20983); assay: Sensitivity to C-390 in medium W; format: cell-based; set-up: key: NG: no growth; Tr: traces
Description: as §1

[9] = test system: Geosmithia argillacea (Anon); assay: Sensitivity to C-390 in medium W; format: cell-based; set-up: key: NG: no growth; Tr: traces
Description: as §1

[10] = test system: Burkholderia cenocepacia (LMG 18830); assay: Sensitivity to C-390 in medium W; format: cell-based; set-up: key: NG: no growth; Tr: traces; conditions: C-390 32 mg/l in medium W
Description: as §1

[11] = test system: Burkholderia cenocepacia (672834P); assay: Sensitivity to C-390 in medium W; format: cell-based; set-up: key: NG: no growth; Tr: traces
Description: as §1

[12] = test system: Burkholderia stabilis (LMG18870); assay: Sensitivity to C-390 in medium W; format: cell-based; set-up: key: NG: no growth; Tr: traces
Description: as §1

[13] = test system: Burkholderia multivorans (LMG 18822); assay: Sensitivity to C-390 in medium W; format: cell-based; set-up: key: NG: no growth; Tr: traces
Description: as §1

[14] = test system: Burkholderia stabilis (716237); assay: Sensitivity to C-390 in medium W; format: cell-based; set-up: key: NG: no growth; Tr: traces
Description: as §1

Pseudomonas aeruginosa = conditions: 50 strains, 7 days
[15] = selective agent 32 mg/l in medium L
[16] = selective agent 64 mg/l in medium L
[17] = selective agent 128 mg/l in medium L

For `CCN(CC)c1ccc(C2(Cl)c3ccccc3N(c3ccccc3)c3ccccc32)cc1` [Medium C-390, 9-chloro-9-(4′-diethylamino)phenyl-9,10-dihydro-10-phenylacridine], the “Number of strains having shown growth” value (Enterobacteria; [15]) was 0, the “Number of strains having shown growth” value (Enterobacteria; [16]) was 0 and the “Number of strains having shown growth” value (Enterobacteria; [17]) was 0. The “Number of strains having shown growth” value (Gram-positive bacteria; [15]) was 0, the “Number of strains having shown growth” value (Gram-positive bacteria; [16]) was 0 and the “Number of strains having shown growth” value (Gram-positive bacteria; [17]) was 0. For the same compound, the “Number of strains having shown growth” value (Mycobacteria; [15]) was 19, the “Percentage of strains having shown growth” value (“Percentage” below) (Mycobacteria; [15]) was “(95%)” and the “Number of strains having shown growth” value (Mycobacteria; [16]) was 19. For the same compound, the “Percentage” value (Mycobacteria; [16]) was “(95%)”, the “Number of strains having shown growth” value (Mycobacteria; [17]) was 19 and the “Percentage” value (Mycobacteria; [17]) was “(95%)”. For the same compound, the intensity of growth ([1]; C-390 1 mg/l in medium W) was “Tr”, the intensity of growth ([1]; C-390 2 mg/l in medium W) was “NG” and the intensity of growth ([1]; C-390 4 mg/l in medium W) was “NG”. For the same compound, the intensity of growth ([1]; C-390 8 mg/l in medium W) was “NG”, the intensity of growth ([1]; C-390 16 mg/l in medium W) was “NG” and the intensity of growth ([1]; C-390 32 mg/l in medium W) was “NG”. For the same compound, the intensity of growth ([2]; C-390 0.5 mg/l in medium W) was “Tr”, the intensity of growth ([2]; C-390 1 mg/l in medium W) was “NG” and the intensity of growth ([2]; C-390 2 mg/l in medium W) was “NG”. For the same compound, the intensity of growth ([2]; C-390 4 mg/l in medium W) was “NG”, the intensity of growth ([2]; C-390 8 mg/l in medium W) was “NG” and the intensity of growth ([2]; C-390 16 mg/l in medium W) was “NG”. The intensity of growth ([2]; C-390 32 mg/l in medium W) was “NG”, the intensity of growth ([3]; C-390 2 mg/l in medium W) was “Tr” and the intensity of growth ([3]; C-390 4 mg/l in medium W) was “NG”. For the same compound, the intensity of growth ([3]; C-390 8 mg/l in medium W) was “NG”, the intensity of growth ([3]; C-390 16 mg/l in medium W) was “NG” and the intensity of growth ([3]; C-390 32 mg/l in medium W) was “NG”. The intensity of growth ([4]; C-390 4 mg/l in medium W) was “NG”, the intensity of growth ([4]; C-390 8 mg/l in medium W) was “NG” and the intensity of growth ([4]; C-390 16 mg/l in medium W) was “NG”. The intensity of growth ([4]; C-390 32 mg/l in medium W) was “NG”, the intensity of growth ([5]; C-390 2 mg/l in medium W) was “NG” and the intensity of growth ([5]; C-390 4 mg/l in medium W) was “NG”. For the same compound, the intensity of growth ([5]; C-390 8 mg/l in medium W) was “NG”, the intensity of growth ([5]; C-390 16 mg/l in medium W) was “NG” and the intensity of growth ([5]; C-390 32 mg/l in medium W) was “NG”. For the same compound, the intensity of growth (Fusarium oxysporum (ENV); C-390 8 mg/l in medium W) was “NG”, the intensity of growth (Fusarium oxysporum (ENV); C-390 16 mg/l in medium W) was “NG” and the intensity of growth (Fusarium oxysporum (ENV); C-390 32 mg/l in medium W) was “NG”. For the same compound, the intensity of growth ([6]; C-390 1 mg/l in medium W) was “NG”, the intensity of growth ([6]; C-390 2 mg/l in medium W) was “NG” and the intensity of growth ([6]; C-390 4 mg/l in medium W) was “NG”. For the same compound, the intensity of growth ([6]; C-390 8 mg/l in medium W) was “NG”, the intensity of growth ([6]; C-390 16 mg/l in medium W) was “NG” and the intensity of growth ([6]; C-390 32 mg/l in medium W) was “NG”. The intensity of growth ([7]; C-390 16 mg/l in medium W) was “NG”, the intensity of growth ([7]; C-390 32 mg/l in medium W) was “NG” and the intensity of growth ([8]; C-390 1 mg/l in medium W) was “Tr”. For the same compound, the intensity of growth ([8]; C-390 2 mg/l in medium W) was “NG”, the intensity of growth ([8]; C-390 4 mg/l in medium W) was “NG” and the intensity of growth ([8]; C-390 8 mg/l in medium W) was “NG”. The intensity of growth ([8]; C-390 16 mg/l in medium W) was “NG”, the intensity of growth ([8]; C-390 32 mg/l in medium W) was “NG” and the intensity of growth ([9]; C-390 0.5 mg/l in medium W) was “NG”. For the same compound, the intensity of growth ([9]; C-390 1 mg/l in medium W) was “NG”, the intensity of growth ([9]; C-390 2 mg/l in medium W) was “NG” and the intensity of growth ([9]; C-390 4 mg/l in medium W) was “NG”. The intensity of growth ([9]; C-390 8 mg/l in medium W) was “NG”, the intensity of growth ([9]; C-390 16 mg/l in medium W) was “NG” and the intensity of growth ([9]; C-390 32 mg/l in medium W) was “NG”. The intensity of growth [10] was “NG”, the intensity of growth ([11]; C-390 8 mg/l in medium W) was “NG” and the intensity of growth ([11]; C-390 16 mg/l in medium W) was “NG”. For the same compound, the intensity of growth ([11]; C-390 32 mg/l in medium W) was “NG”, the intensity of growth ([12]; C-390 2 mg/l in medium W) was “NG” and the intensity of growth ([12]; C-390 4 mg/l in medium W) was “NG”. The intensity of growth ([12]; C-390 8 mg/l in medium W) was “NG”, the intensity of growth ([12]; C-390 16 mg/l in medium W) was “NG” and the intensity of growth ([12]; C-390 32 mg/l in medium W) was “NG”. The intensity of growth ([13]; C-390 4 mg/l in medium W) was “NG”, the intensity of growth ([13]; C-390 8 mg/l in medium W) was “NG” and the intensity of growth ([13]; C-390 16 mg/l in medium W) was “NG”. For the same compound, the intensity of growth ([13]; C-390 32 mg/l in medium W) was “NG”, the intensity of growth ([14]; C-390 4 mg/l in medium W) was “Tr” and the intensity of growth ([14]; C-390 8 mg/l in medium W) was “Tr”. The intensity of growth ([14]; C-390 16 mg/l in medium W) was “NG”, the intensity of growth ([14]; C-390 32 mg/l in medium W) was “NG” and the “Number of strains having shown growth” value (Pseudomonas aeruginosa; [15]) was 46. For the same compound, the “Percentage” value (Pseudomonas aeruginosa; [15]) was “(92%)”, the “Number of strains having shown growth” value (Pseudomonas aeruginosa; [16]) was 45 and the “Percentage” value (Pseudomonas aeruginosa; [16]) was “(90%)”. For the same compound, the “Number of strains having shown growth” value (Pseudomonas aeruginosa; [17]) was 35 and the “Percentage” value (Pseudomonas aeruginosa; [17]) was “(70%)”.
